One experiment deals with MDA.MB-231. Put plainly: Cancer cell cytotoxicity assay, MDA.MB-231. The settings on record: Homo sapiens; MDA.MB-231, Breast Cancer. The experiment is classed as cell-based. The method, then: (§1) The effect of the compounds of the invention on tumor cells was determined by the assay described by Latham et al., Oncogene 12:827-837 (1996). Tumor cells K562 (chronic myelogenous leukemia; leukemia cell line +ve for Bcr-Abl) or DU145 (prostate cancer) were plated in 12-well dishes at a cell density of 2.5×10^4 cells well. The plated cells were treated 24 hours later with a compound of the invention dissolved in DMSO at multiple concentrations ranging from 0.01 μM to 100 μM. The plates were examined 96 hours later under an inverted microscope, Olympus CK-2 using a 10× objective, and compound activity was noted by physical observation. When necessary, the total number of viable cells was determined by trypsinizing the wells and counting the number of viable cells, as determined by trypan blue exclusion, using a hemacytometer. Where “Lower” and “Upper” value are provided in Table 5, the IC50 was determined to be within that range. […]
(§2) The cytotoxicity of Compound 42, (Z)-6-((2,6-dichlorobenzyl)sulfonyl)-2-(4-hydroxy-3-nitrobenzylidene)-2H-benzo[b][1,4]thiazin-3(4H)-one, was determined according the assay method of Example 7 on the prostate (androgen dependent or independent), breast and pancreatic cancer cell lines listed in Table 6A, below, and the additional cell lines listed in Table 6B, below. […]

The next experiment deals with MCF-7. Put plainly: Cancer cell cytotoxicity assay, MCF-7. The experiment is classed as cell-based. The settings on record: Homo sapiens, MCF7; MCF-7, Breast Cancer. On the procedure: as §1, §2
For the next experiment, the system named is HMSC.hTERT. Put plainly: Cytotoxicity assay, human mesenchymal stem cell line HMSC.hTERT. The experiment is classed as cell-based. On the procedure: as §1, §2
The test system of another experiment is MCF10A. Put plainly: Cytotoxicity assay, MCF10A. The experiment is classed as cell-based. The settings on record: Homo sapiens, MCF-10A, Normal Breast. The method, then:
as §1, §2

In another experiment the test system is Z138C. Put plainly: Cancer cell cytotoxicity assay, Z138C. It is filed as cell-based. The settings on record: Mantle cell lymphoma. On the procedure:
as §1, §2

Another experiment addresses T1, CK2α (Homo sapiens, UniProt P68400).
T1 construct: CK2α (human full length protein)
Put plainly: Casein kinase 2 inhibition, CK2α subunit (32P-ATP kinase assay). It is filed as biochemical. The settings on record: 20 μM cold ATP; 30 min preincubation, 20 min at 30° C. On the procedure:
The ability of Compound 42 to inhibit the activity of casein kinase 2 (CK2) was determined as follows using the catalytic CK2 subunits CK2α and CK2α2. Two and one half nanograms of CK2α (human full length protein; Invitrogen PV3248), 2.5 ng of a CK2α form containing amino acids 3-339) or 10 ng of CK2α2 (human full length protein; Invitrogen PV3624) was diluted into kinase buffer (20 mM Tris pH 7.5, 10 mM MgCl2, 0.01% NP-40, 1 mM EGTA, 2 mM DTT) and incubated with varying concentrations of Compound 42 at room temperature for 30 minutes. Kinase reactions were initiated by the addition of 1 μg of CK2 substrate α-synuclein or 40 μM CK2 synthetic peptide substrate (AnaSpec, San Jose, Calif.), 20 μM cold ATP, and 20 μCi γ-^32P-ATP. The reactions were incubated at 30° C. for 20 minutes, terminated by the addition of 2× Laemmle sample buffer, boiled for 2 minutes, resolved by 12% acrylamide SDS-PAGE, and subjected to autoradiography.

The next experiment deals with T2, PIM1 (Homo sapiens, UniProt P11309).
T2 construct: PIM1 (human full length protein; Invitrogen PV3503); purchased Invitrogen PV3503
Put plainly: PIM1 inhibition (32P-ATP kinase assay). The experiment is classed as biochemical. The settings on record: K9 Peptide substrate, 20 μM cold ATP. On the procedure: The ability of Compound 42 to inhibit the activity of the kinase proto-ocogene pim-was determined as follows. Ten nanograms of PIM1 (human full length protein; Invitrogen PV3503) was diluted into kinase buffer (20 mM Tris pH 7.5, 10 mM MgCl2, 0.01% NP-40, 1 mM EGTA, 2 mM DTT) and incubated with varying concentrations of Compound 42 at room temperature for 30 minutes. The kinase reactions were initiated by the addition of 20 μM of PIM1 specific synthetic peptide substrate (K9 Peptide; p70S6 Kinase Substrate; AnaSpec, San Jose, Calif.), 20 μM cold ATP, and 20 μCi γ-^32P-ATP. The reactions were incubated at 30° C. for 20 minutes and terminated by the addition of 0.5M o-Phosphoric acid. 10 μl of the reaction mixture was spotted on a P-30 Filtermat (PerkinElmer) and developed using autoradiography or phosphorimaging.

The record followed here is US9242945B2, “Substituted 2-benzylidene-2H-benzo[b][1,4]thiazin-3(4H)-ones, derivatives thereof, and therapeutic uses thereof” (TEMPLE UNIVERSITY—OF THE COMMONWEALTH SYSTEM OF HIGHER …, priority 2011, dated 2016).

T2 sequence (P11309 whole entry): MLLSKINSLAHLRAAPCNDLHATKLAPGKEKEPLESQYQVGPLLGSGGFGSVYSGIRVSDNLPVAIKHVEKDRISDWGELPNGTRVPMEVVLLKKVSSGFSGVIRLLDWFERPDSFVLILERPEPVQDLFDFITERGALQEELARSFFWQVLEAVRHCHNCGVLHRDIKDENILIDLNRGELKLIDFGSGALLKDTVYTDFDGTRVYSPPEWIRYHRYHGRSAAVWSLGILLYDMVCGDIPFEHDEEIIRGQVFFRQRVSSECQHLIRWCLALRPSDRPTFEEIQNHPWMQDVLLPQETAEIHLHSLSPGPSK
T1 sequence (P68400 3-339 limits assumed): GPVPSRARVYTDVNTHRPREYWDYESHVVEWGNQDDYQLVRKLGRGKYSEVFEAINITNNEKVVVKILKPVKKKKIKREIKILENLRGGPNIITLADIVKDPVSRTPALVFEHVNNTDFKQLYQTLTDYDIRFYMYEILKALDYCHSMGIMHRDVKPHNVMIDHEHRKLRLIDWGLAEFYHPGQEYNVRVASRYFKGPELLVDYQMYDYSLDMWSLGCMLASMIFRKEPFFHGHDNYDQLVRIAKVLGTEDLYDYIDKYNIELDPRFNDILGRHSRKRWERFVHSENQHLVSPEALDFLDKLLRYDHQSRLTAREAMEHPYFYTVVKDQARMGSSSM

Turning to `O=C1Nc2cc(S(=O)(=O)Cc3c(Cl)cccc3Cl)ccc2S/C1=C\c1ccc(O)c([N+](=O)[O-])c1` [Compound 42, (Z)-6-((2,6-dichlorobenzyl)sulfonyl)-2-(4-hydroxy-3-nitrobenzylidene)-2H-benzo[b][1,4]thiazin-3(4H)-one], the GI50 (usually the concentration that inhibits growth by half) in the experiment with MDA.MB-231 was 0.12 µM; in the experiment with MCF-7 it was 1 µM; in the experiment with HMSC.hTERT (Human Mesenchymal Stem cells), > 10 µM; in the experiment with MCF10A it was 2.5 µM; with Z138C it was 0.07 µM. For the same compound, the “cell death in the normal human stem cell line” value with HMSC.hTERT is “did not cause cell death”. Moreover, the values for the IC50 at CK2α and at PIM1 were 0.362 µM and 0.226 µM, respectively.
